# Measurements published in patent US20260159533A1, “INHIBITORS OF COMPLEMENT FACTORS AND USES THEREOF” (Annexon, Inc., priority 2022, published 2026).
# Structures can show the parent of a compound that is named as a salt.
# Biological target: T1, human C1s protein (Homo sapiens, UniProt P09871)
# T1 construct: purchased R&D Systems or Complement Technologies 2060-SE or A104
# T1 sequence (P09871 16-688): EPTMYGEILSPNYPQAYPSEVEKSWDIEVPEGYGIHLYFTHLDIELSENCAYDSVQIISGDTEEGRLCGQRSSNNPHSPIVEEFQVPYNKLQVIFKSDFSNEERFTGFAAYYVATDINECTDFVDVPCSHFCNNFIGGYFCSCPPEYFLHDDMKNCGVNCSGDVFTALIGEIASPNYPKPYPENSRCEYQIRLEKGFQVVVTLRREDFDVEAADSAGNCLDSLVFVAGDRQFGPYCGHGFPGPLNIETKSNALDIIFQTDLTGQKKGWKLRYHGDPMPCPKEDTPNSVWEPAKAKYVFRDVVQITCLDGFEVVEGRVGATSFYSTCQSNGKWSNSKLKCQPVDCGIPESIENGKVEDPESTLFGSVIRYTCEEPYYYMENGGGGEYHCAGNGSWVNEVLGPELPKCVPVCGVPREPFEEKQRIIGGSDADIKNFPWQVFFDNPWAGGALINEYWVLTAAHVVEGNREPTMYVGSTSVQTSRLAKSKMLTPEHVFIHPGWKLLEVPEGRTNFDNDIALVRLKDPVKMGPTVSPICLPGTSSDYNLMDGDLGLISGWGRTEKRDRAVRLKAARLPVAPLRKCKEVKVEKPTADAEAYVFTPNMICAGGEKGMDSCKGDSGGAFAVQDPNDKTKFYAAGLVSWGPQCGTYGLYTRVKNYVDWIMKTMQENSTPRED
# Experiment: recombinant C1s enzymatic assay (YLGR-Rh110-dPro substrate hydrolysis, fluorescence)
# Assay type: biochemical
# Settings: recombinant human C1s 2.5 nM, substrate YLGR-Rh110-dPro 20 μM, 15 min pre-incubation, 60 min RT; read-out: rec. hC11s pIC50 (converted)
# Description: Compound testing in the purified or recombinant C1s enzymatic assay C1s is a serine protease; its enzymatic activity is measured in vitro by the hydrolysis of the synthetic substrate YLGR-Rh110-dPro (Kerr F K, O'Brien G, Quinsey N S, Whisstock J C, Boyd S, de la Banda M G, Kaiserman D, Matthews A Y, Bird P I, Pike R N. Elucidation of the substrate specificity of the Cis protease of the classical complement pathway. J. Biol. Chem. (2005) 280, 39510-39514). The enzyme cleaves the substrate with the release of Rh110 which is highly fluorescent. Cis inhibitors prevent the hydrolysis of the substrate thus resulting in a decrease of the signal.
# The recombinant C1s enzymatic assay is performed using the human C1s protein (R&D Systems, 2060-SE or Complement Technologies, A104). The assay buffer composition is: 50 mM HEPES pH 7.5 (Sigma, H3375), 150 mM NaCl (Sigma, S7653), 0.2% PEG 8000 (VWR, AA43443-22), 0.01% Pluronic F127 (Sigma, P2243). On the day of the experiment 0.1 mg/mL BSA (Sigma, B4287) is added fresh to the buffer. The test item stock solutions are serially diluted 1:3 or 1:4 or 1:5 with DMSO, 11-point curves, in a 384-well compound plate. Nafamostat concentration curve is always included in the assay plate as a reference control.
# The assay plate is prepared by dispensing 0.25 μL from compound plate into a 384-well black assay plate (assay plate, Greiner Fluotrac 200, 781076, VWR 736-0140). The high controls are prepared dispensing in 0.25 μL DMSO in column 23, rows AH or AP and low controls with 0.25 μL of 0.1 μM Nafamostat. Cis solution is prepared as 2× of the 2.5 nM final assay concentration. The YLGR-Rh110-dPro substrate is prepared as 2× of the final assay concentration of 20 μM. 5 μL/well of 2× enzyme solution is dispensed and pre-incubated for 15 min with the compounds. The enzymatic reaction is the started with 5 μL/well of the 2× substrate solution. The plate is incubated for 60 min RT in the dark and fluorescence is measured (ex 485/em 535 nm) using an Envision (PerkinElmer) or an equivalent instrument.
row,SMILES,IC50
1,"CNC(=O)c1ccn(-c2ccc(B(O)O)cc2-c2ccc3c(N)cnnc3c2)n1 [Example 6, [3-(4-aminocinnolin-7-yl)-4-[3-(methylcarbamoyl)-1H-pyrazol-1-yl]phenyl]boronic acid]",29.5 nM
2,"Nc1cnnc2cc(-c3cc(B(O)O)ccc3-c3ncco3)ccc12 [Example 25, [3-(4-aminocinnolin-7-yl)-4-(1,3-oxazol-2-yl)phenyl]boronic acid formic acid salt]",0.912 nM
3,"Cc1nc(-c2ccc(B(O)O)cc2-c2ccc3c(N)cnnc3c2)ns1 [Example 18, [3-(4-aminocinnolin-7-yl)-4-(5-methyl-1,2,4-thiadiazol-3-yl)phenyl]boronic acid]",1.62 nM
4,"Cc1cc(-c2nccs2)c(-c2ccc3c(N)cnnc3c2)cc1B(O)O [Example 53, [5-(4-aminocinnolin-7-yl)-2-methyl-4-thiazol-2-yl-phenyl]boronic acid formic acid salt]",9.55 nM
5,"N#Cc1ccn(-c2ccc(B(O)O)cc2-c2ccc3c(N)cnnc3c2)n1 [Example 17, [3-(4-aminocinnolin-7-yl)-4-(3-cyano-1H-pyrazol-1-yl)phenyl]boronic acid]",6.31 nM
6,"COc1cc(-c2ncc(C(F)(F)F)s2)c(-c2ccc3c(N)cnnc3c2)cc1B(O)O [Example 83, [5-(4-aminocinnolin-7-yl)-2-methoxy-4-[5-(trifluoromethyl)thiazol-2-yl]phenyl]boronic acid]",1.23 nM
7,"COc1cnc(-c2cc(OC)c(B(O)O)cc2-c2ccc3c(N)cnnc3c2)s1 [Example 68, [5-(4-aminocinnolin-7-yl)-2-methoxy-4-(5-methoxy-1,3-thiazol-2-yl)phenyl]boronic acid formic acid salt]",0.692 nM
8,"Nc1cnnc2cc(-c3cc4c(cc3-n3cccn3)OCCOB4O)ccc12 [Example 70, 8-(4-aminocinnolin-7-yl)-7-(1H-pyrazol-1-yl)-3,4-dihydro-1H-2,5,1-benzodioxaborepin-1-ol]",1.26 nM
9,"Nc1cnnc2cc(-c3cc(B(O)O)ccc3-c3nccs3)ccc12 [Example 24, [3-(4-aminocinnolin-7-yl)-4-(1,3-thiazol-2-yl)phenyl]boronic acid formic acid salt]",2.57 nM
10,"CS(=O)(=O)Nc1cnn(-c2ccc(B(O)O)cc2-c2ccc3c(N)cnnc3c2)c1 [Example 21, [3-(4-aminocinnolin-7-yl)-4-(4-methanesulfonamido-1H-pyrazol-1-yl)phenyl]boronic acid]",1.86 nM
11,"COc1cc(-c2ncc(C(F)F)o2)c(-c2ccc3c(N)cnnc3c2)cc1B(O)O [Example 90, [5-(4-aminocinnolin-7-yl)-4-[5-(difluoromethyl)oxazol-2-yl]-2-methoxy-phenyl]boronic acid formic acid salt]",1.02 nM
12,"CNC(=O)c1cnn(-c2ccc(B(O)O)cc2-c2ccc3c(N)cnnc3c2)c1 [Example 2, [3-(4-aminocinnolin-7-yl)-4-[4-(methylcarbamoyl)-1H-pyrazol-1-yl]phenyl]boronic acid formic acid salt]",3.89 nM
13,"N#Cc1ccnn1-c1ccc(B(O)O)cc1-c1ccc2c(N)cnnc2c1 [Example 22, [3-(4-aminocinnolin-7-yl)-4-(5-cyano-1H-pyrazol-1-yl)phenyl]boronic acid]",0.851 nM
14,"Nc1cnnc2cc(-c3cc(B(O)O)ccc3-c3cc[nH]n3)ccc12 [Example 7, [3-(4-aminocinnolin-7-yl)-4-(1H-pyrazol-3-yl)phenyl]boronic acid]",2.63 nM
15,"Cc1cc(-c2ncco2)c(-c2ccc3c(N)cnnc3c2)cc1B(O)O [Example 42, [5-(4-aminocinnolin-7-yl)-2-methyl-4-oxazol-2-yl-phenyl]boronic acid formic acid salt]",2.04 nM
16,"COC(=O)c1cn(-c2ccc(B(O)O)cc2-c2ccc3c(N)cnnc3c2)cn1 [Example 4, [3-(4-aminocinnolin-7-yl)-4-[4-(methoxycarbonyl)-1H-imidazol-1-yl]phenyl]boronic acid]",38.9 nM
17,"COc1cnn(-c2ccc(B(O)O)cc2-c2ccc3c(N)cnnc3c2)c1 [Example 28, [3-(4-aminocinnolin-7-yl)-4-(4-methoxy-1H-pyrazol-1-yl)phenyl]boronic acid formic acid salt]",2.19 nM
18,"Nc1cnnc2cc(-c3cc4c(cc3-c3ncco3)OCCOB4O)ccc12 [Example 74, 7-(1-hydroxy-7-oxazol-2-yl-3,4-dihydro-2,5,1-benzodioxaborepin-8-yl)cinnolin-4-amine]",1.12 nM

# The next lines start with the values.
row,IC50,SMILES
1,1.07 nM,"COc1cc(-n2cccn2)c(-c2ccc3c(N)cnnc3c2)cc1B(O)O [Example 23, [5-(4-aminocinnolin-7-yl)-2-methoxy-4-(1H-pyrazol-1-yl)phenyl]boronic acid]"
2,1.07 nM,"COc1cc(-n2nccn2)c(-c2ccc3c(N)cnnc3c2)cc1B(O)O [Example 33, [5-(4-aminocinnolin-7-yl)-2-methoxy-4-(2H-1,2,3-triazol-2-yl)phenyl]boronic acid]"
3,6.31 nM,"COc1cc(-c2cn[nH]c2)c(-c2ccc3c(N)cnnc3c2)cc1B(O)O [Example 54, [5-(4-aminocinnolin-7-yl)-2-methoxy-4-(1H-pyrazol-4-yl)phenyl]boronic acid]"
4,2 nM,"COc1cc(-n2cc(N3CCOCC3)cn2)c(-c2ccc3c(N)cnnc3c2)cc1B(O)O [Example 58, [5-(4-aminocinnolin-7-yl)-2-methoxy-4-(4-morpholinopyrazol-1-yl)phenyl]boronic acid formic acid salt]"
5,1.17 nM,"COc1cc(-n2cc(C(F)(F)F)cn2)c(-c2ccc3c(N)cnnc3c2)cc1B(O)O [Example 81, 5-(4-aminocinnolin-7-yl)-2-methoxy-4-[4-(trifluoromethyl)pyrazol-1-yl]phenyl]boronic acid formic acid salt]"
6,1.17 nM,"COc1cc(-c2ncc(C)s2)c(-c2ccc3c(N)cnnc3c2)cc1B(O)O [Example 50, [5-(4-aminocinnolin-7-yl)-2-Methoxy-4-(5-methylthiazol-2-yl)phenyl]boronic acid formic acid salt]"
7,1.7 nM,"COc1cc(-n2cccn2)c(-c2ccc3c(N)nnc(C)c3c2)cc1B(O)O [Example 47, [5-(1-amino-4-methyl-phthalazin-6-yl)-2-methoxy-4-pyrazol-1-yl-phenyl]boronic acid]"
8,0.759 nM,"Nc1cnnc2cc(-c3cc(B(O)O)c(OC4CC4)cc3-n3cccn3)ccc12 [Example 89, [5-(4-aminocinnolin-7-yl)-2-(cyclopropoxy)-4-pyrazol-1-yl-phenyl]boronic acid formic acid salt]"
9,3.89 nM,"COc1cc(-n2cccn2)c(-c2ccc3c(N)nccc3c2)cc1B(O)O [Example 48, [5-(1-amino-6-isoquinolyl)-2-methoxy-4-pyrazol-1-yl-phenyl]boronic acid formic acid salt]"
10,12.3 nM,"Nc1cnnc2cc(-c3cc(B(O)O)c(Oc4ccccc4)cc3-n3cccn3)ccc12 [Example 64, [5-(4-aminocinnolin-7-yl)-2-phenoxy-4-pyrazol-1-yl-phenyl]boronic acid formic acid salt]"
11,4.47 nM,"Nc1cnnc2cc(-c3cc(B(O)O)c(OC(F)F)cc3-n3cccn3)ccc12 [Example 27, [5-(4-aminocinnolin-7-yl)-2-(difluoromethoxy)-4-(1H-pyrazol-1-yl)phenyl]boronic acid formic acid salt]"
12,1.58 nM,"COc1cc(-n2cc(F)cn2)c(-c2ccc3c(N)cnnc3c2)cc1B(O)O [Example 40, [5-(4-aminocinnolin-7-yl)-4-(4-fluoropyrazol-1-yl)-2-methoxyphenyl]boronic acid]"
